Measured values reported in patent publication US12617817B2, “Carrier peptide fragment and use thereof” (TOAGOSEI CO., LTD., priority 2020, dated 2026).
FAM = fluorescein amidite (fluorescent dye, FAM)

Test system: HeLa cells
Experiment: Evaluating cell penetrating ability by flow cytometry (FAM fluorescence) in HeLa cells
Format: cell-based, human
Details: for MFI (mean fluorescent intensity): additive 10 μM, 0.5% DMSO, 20 hours incubation at 37° C., flow cytometry FL2 detector, average of triplicate; for shift of flow cytometry histogram on the X-axis (fluorescent intensity) in comparison with Example 3 (only FAM): FIG. 1
Protocol: The cell penetrating ability of sample 1 and sample 2 was evaluated using HeLa cells (cell line established from human cervical cancer cells). In Table 2, Example 1 indicates a test of addition of sample 1 to a culture solution of HeLa cells, Example 2 indicates a test of addition of sample 2, Example 3 indicates a test of addition of FAM diluted with DMSO, and Example 4 indicates a test of addition of DMSO only.
HeLa cells were cultured in an ordinary culture medium, DMEM (Dulbecco's modified Eagle's medium, manufactured by Fuji Film Wako Pure Chemical Industries, Cat. No. 043-30085) containing 10% FBS (fetal bovine serum).
HeLa cells adhering to the culture plate were washed with PBS, 0.25% trypsin/EDTA solution was added, and the cells were incubated for 3 minutes at 37° C. After incubation, the same DMEM medium containing 10% FBS was added to deactivate the trypsin, and the cells were precipitated by 5 minutes of centrifugation at 150×g. The supernatant produced by centrifugation was removed, and the same DMEM containing 10% FBS was added to the precipitate (cell pellet) to prepare an approximately 1×10^5 cells/mL cell suspension. 2 mL of the cell suspension was added to the wells of a commercial 6-well plate (Iwaki microplate commercially available from AGC techno glass Co., Ltd) to seed the cells at a rate of approximately 2×10^5 cells/well. This was then cultured for 3 hours at 37° C. under conditions of 5% CO2, causing the cells to adhere to the bottom of the wells. Because the cell penetrating ability evaluation is performed in triplicate, cells were seeded in 3 wells for the test of Example 1, and the following operations were performed on each well.
Next, the above 2 mM sample solution 1 was diluted with the above DMEM containing 10% FBS to prepare a sample solution 1 in which the concentration of the sample 1 was 20 μM. 1 mL of the culture supernatant was removed from each well after the 3 hours of culture, and 1 mL of 20 μM sample solution 1 was added to the well so that the sample 1 concentration of the culture solution in the well was 10 μM and the DMSO concentration was 0.5%. This was then incubated for 20 hours at 37° C. under conditions of 5% CO2. After this 20-hour incubation, the culture supernatant was removed from the well, and the cells in the well were washed twice with 1 mL of PBS. 200 μL of 0.25% trypsin/EDTA solution was then added to the well, and the cells were incubated for 3 minutes at 37° C. After this incubation, 400 μL of the above DMEM containing 10% FBS was added to the well to deactivate the trypsin, after which the cell suspension in the well was transferred to a tube, and the cells were collected. 600 μL of PBS was then added to each well to wash the well. The PBS in the well was then transferred to the above tube to collect the cells remaining in the well in the tube. This tube was centrifuged for 5 minutes under conditions of 210×g at 4° C. After centrifugation the supernatant was removed, and the precipitate (cell pellet) was suspended (washed) in 1 mL of PBS and centrifuged under the same conditions. This operation was repeated twice to remove the supernatant and obtain cells (a cell pellet) that had been cultured in medium containing the sample 1.
The cells (cell pellet) obtained above were analyzed by flow cytometry to assess the cell penetrating ability of the sample 1. A flow cytometer (On-Chip Biotechnologies Co., Ltd.) was used for the analysis.
The cell pellet obtained above was suspended in 50 μL of PBS for purposes of this analysis. A further 50 μL of 2× sample buffer for flow cytometry was added to this suspension to prepare a cell suspension for analysis.
Gating was performed with the flow cytometer based on forward scatter (FSC) and side scatter (SSC), a gate was set for the cell population under analysis, and the cell population within this gate was measured for fluorescent intensity. Analysis was performed so that the cell population composed of at least 5,000 cells. […]

Substance	MFI (mean fluorescent intensity)	shift of flow cytometry histogram on the X-axis (fluorescent intensity) in comparison with Example 3 (only FAM) (10 μM, 20 hours)	efficiency (cell penetrating ability), times higher than Example 2, from MFI values (10 μM, 20 hours, comparison of MFI of Example 1 with Example 2)
5(6)-carboxyfluorescein [Example 3]	6	–	–
FAM-KKRTLRKNDRKKR-CONH2 ({FAM}-KKRTLRKNDRKKR-NH2) [Example 2]	15.5	shifted to the right	–
FAM-KKRTLRKSNRKKR-CONH2 ({FAM}-KKRTLRKSNRKKR-NH2) [Example 1]	62	shifted to the right	4 times
